{"source": "the NIST ThermoML archive (doi:10.1016/j.jct.2015.06.017)", "details": "Liquid, Closed cell (Static) method", "note": "Numbers after ± are expanded uncertainties."}
{"smiles": "C=CC", "note": "[propene]", "values": [{"measurement": "vapor or sublimation pressure", "setting": "282.97 K", "value": "769 ± 8", "unit": "kPa"}, {"measurement": "vapor or sublimation pressure", "setting": "287.57 K", "value": "873 ± 8", "unit": "kPa"}, {"measurement": "vapor or sublimation pressure", "setting": "293.48 K", "value": "1028 ± 8", "unit": "kPa"}, {"measurement": "vapor or sublimation pressure", "setting": "298.02 K", "value": "1152 ± 8", "unit": "kPa"}, {"measurement": "vapor or sublimation pressure", "setting": "302.83 K", "value": "1291 ± 9", "unit": "kPa"}, {"measurement": "vapor or sublimation pressure", "setting": "307.67 K", "value": "1458 ± 9", "unit": "kPa"}, {"measurement": "vapor or sublimation pressure", "setting": "314.06 K", "value": "1691 ± 9", "unit": "kPa"}, {"measurement": "vapor or sublimation pressure", "setting": "318.36 K", "value": "1854 ± 9", "unit": "kPa"}, {"measurement": "vapor or sublimation pressure", "setting": "322.91 K", "value": "2039 ± 9", "unit": "kPa"}, {"measurement": "vapor or sublimation pressure", "setting": "327.27 K", "value": "2239 ± 9", "unit": "kPa"}]}
